In the RepoRT retention time repository (doi:10.1016/j.aca.2012.07.013):

Assay: RP, 50 × 2.1 mm, 1.7 µm, 0.5 mL/min, estimated dead time 0.22 min; A: 98% water + 2% acetonitrile + 0.1% formic acid, pH 3; B: 2% water + 98% acetonitrile + 0.1% formic acid, pH 3; gradient (min/%B) 0/0 0.5/0 4/60 8/100 9/100 9.2/0 10/0
Conditions: stereoisomer not certain
With `Nc1ccc(C(F)(F)F)cc1` [4-trifluoro methylaniline] the LC retention time was 0.383 min.
Compound `CCCCCCCCCCCCCCC(=O)OCC(O)COP(=O)([O-])OCC[N+](C)(C)C` (configuration not stated) [LPC (15:0)] has an LC retention time of 4.67 min.
Compound `CCCCCCCCCCCCCCCC(=O)OCC(O)COP(=O)([O-])OCC[N+](C)(C)C` (configuration not stated) [LPC (16:0)] has an LC retention time of 4.98 min.
`CCCCCCCCCCCCCCCCC(=O)OCC(O)COP(=O)([O-])OCC[N+](C)(C)C` (configuration not stated) [LPC (17:0)] showed an LC retention time of 5.3 min.
For `CCCCCCCCCCCCCCCCCC(=O)OCC(O)COP(=O)([O-])OCC[N+](C)(C)C` (configuration not stated) [LPC (18:0)], the LC retention time was 5.64 min.
Compound `CCC=CCC=CCC=CCC=CCC=CCC=CCCC(=O)OCC(O)COP(=O)([O-])OCC[N+](C)(C)C` (configuration not stated) [LPC (22:6)] has an LC retention time of 4.72 min.
In the case of `CCCCCC=CCC=CCC=CCC=CCCCC(=O)OC(CO)COP(=O)(O)OCCN` (configuration not stated) [LPE (0:0/20:4(5Z,8Z,11Z,14Z)], the LC retention time is reported as 4.74 min.
`CCC=CCC=CCC=CCC=CCCCCCCC(=O)OC(CO)COP(=O)(O)OCCN` (configuration not stated) [LPE (0:0/20:4(8Z,11Z,14Z,17Z))] showed an LC retention time of 4.74 min.
For `CCC=CCC=CCC=CCC=CCC=CCC=CCCC(=O)OC(CO)COP(=O)(O)OCCN` (configuration not stated) [LPE (0:0/22:6(4Z,7Z,10Z,13Z,16Z,19Z))], the LC retention time was 4.71 min.
`CCCCCC=CCC=CCC=CCCCCCCC(=O)OCC(O)COP(=O)(O)OCCN` (configuration not stated) [LPE (20:3)] showed an LC retention time of 4.71 min.
Work on `CCC=CCC=CCC=CCC=CCCCCCCC(=O)OCC(O)COP(=O)(O)OCCN` (configuration not stated) [LPE (20:4(8Z,11Z,14Z,17Z)/0:0)] yielded an LC retention time of 4.74 min.
With `CCCCCCCCCCCCCCCCCCOCC(O)COP(=O)(O)OCC(N)C(=O)O` (configuration not stated) [PS (O-18:0/0:0)] the LC retention time was 4.52 min.
For `Oc1ccc(C(c2ccc(O)cc2)(C(F)(F)F)C(F)(F)F)cc1` [bisphenol AF], the LC retention time was 0.397 min.
`O=c1cc2oc3ccccc3oc-2cc1=O` [dibenzo[1,4]dioxin-2,3-dione] showed an LC retention time of 2.57 min.
`c1ccc(CSSCc2ccccc2)cc1` [dibenzyl disulfide] showed an LC retention time of 2.39 min.
With `CC(CCC(=O)NCC(=O)O)C1CCC2C3C(O)CC4CC(OS(=O)(=O)O)CCC4(C)C3CCC12C` (configuration not stated) [glycochenodeoxycholate-3-sulfate] the LC retention time was 3.38 min.
In the case of `CC(CCC(=O)NCC(=O)O)C1CCC2C3C(O)CC4CC(O)CCC4(C)C3CCC12C` (configuration not stated) [glycochenodeoxycholic acid (GCDCA)], the LC retention time is reported as 3.78 min.
For `CC(CCC(=O)NCC(=O)O)C1CCC2C3C(O)CC4CC(O)CCC4(C)C3CC(O)C12C` (configuration not stated) [glycocholic acid (GCA)], the LC retention time was 3.36 min.
Work on `CC(CCC(=O)NCC(=O)O)C1CCC2C3CCC4CC(O)CCC4(C)C3CC(O)C12C` (configuration not stated) [glycodeoxycholic acid (GDCA)] yielded an LC retention time of 3.78 min.
In the case of `CCCCCCCCCCCCCC=CC(O)C([NH3+])COP(=O)([O-])O` (configuration not stated) [sphingosine 1-phosphate], the LC retention time is reported as 4.36 min.
With `CC(CCC(=O)NCCS(=O)(=O)O)C1CCC2C3C(O)CC4CC(O)CCC4(C)C3CCC12C` (configuration not stated) [taurochenodeoxycholic acid (TCDCA)] the LC retention time was 3.45 min.
`CC(CCC(=O)NCCS(=O)(=O)O)C1CCC2C3C(O)CC4CC(O)CCC4(C)C3CC(O)C12C` (configuration not stated) [taurocholic acid (TCA)] gave an LC retention time of 3.08 min.
